Test results taken from patent US20230111310A1, “CARBOXYLIC ACID DERIVATIVE-SUBSTITUTED IMINO ARYL COMPOUND, PREPARATION METHOD THEREFOR, HERBICIDAL COMPOSITION AND USE THEREOF” (Qingdao Kingagroot Chemical Compound Co., Ltd., priority 2020, published 2023).

Columns and labels:
Experiment in all cases: Weeding effect in post-emergence stage
Assay type in all cases: in vivo
Eleusine indica = details: for Weeding effect in post-emergence stage, Eleusine indica: level of fresh weight growth control rate; for Weeding effect in post-emergence stage, Eleusine indica (level): fresh weight control rate level
Procedure, shortened: (§1)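 Pot-grown greenhouse plants sprayed at 2–3 leaf stage, 2 weeks after sowing, with compound in acetone/Tween 80 plus methyl oleate emulsifiable concentrate (1.5 liter/ha) at 500–7.5 g/ha. Growth control rated 3 weeks after treatment; mean of three replicates.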

Digitaria sanguinalis = details: for Weeding effect in post-emergence stage, Digitaria sanguinalis: level of fresh weight growth control rate; for Weeding effect in post-emergence stage, Digitaria sanguinalis (level): fresh weight control rate level
Procedure, shortened: as §1

Alopecurus japonicus = details: for Weeding effect in post-emergence stage, Alopecurus japonicus: level of fresh weight growth control rate; for Weeding effect in post-emergence stage, Alopecurus japonicus (level): fresh weight control rate level
Procedure, shortened: as §1

Setaria viridis = details: for Weeding effect in post-emergence stage, Setaria viridis: level of fresh weight growth control rate; for Weeding effect in post-emergence stage, Setaria viridis (level): fresh weight control rate level
Procedure, shortened: as §1

Abutilon theophrasti = details: for Weeding effect in post-emergence stage, Abutilon theophrasti: level of fresh weight growth control rate; for Weeding effect in post-emergence stage, Abutilon theophrasti (level): fresh weight control rate level
Procedure, shortened: as §1

Echinochloa crusgalli = details: for Weeding effect in post-emergence stage, Echinochloa crusgalli: level of fresh weight growth control rate; for Weeding effect in post-emergence stage, Echinochloa crusgalli (level): fresh weight control rate level
Procedure, shortened: as §1

Structure (SMILES) | Weeding effect in post-emergence stage, Eleusine indica (Eleusine indica; Dose 15 g/ha) | Weeding effect in post-emergence stage, Digitaria sanguinalis (Digitaria sanguinalis; Dose 15 g/ha) | Weeding effect in post-emergence stage, Alopecurus japonicus (Alopecurus japonicus; Dose 15 g/ha) | Weeding effect in post-emergence stage, Setaria viridis (Setaria viridis; Dose 15 g/ha) | Weeding effect in post-emergence stage, Abutilon theophrasti (Abutilon theophrasti; Dose 15 g/ha) | Weeding effect in post-emergence stage, Echinochloa crusgalli (Echinochloa crusgalli; Dose 15 g/ha) | also measured
COC(=O)[C@@H](C)O/N=C/c1cc(-n2c(=O)n(C)c(=S)n(C)c2=O)c(F)cc1C#N [87(R)] | 5 (Level 5: growth control rate is above 85%) | 5 (Level 5: growth control rate is above 85%) | 5 (Level 5: growth control rate is above 85%) | 5 (Level 5: growth control rate is above 85%) | 5 (Level 5: growth control rate is above 85%) | 5 (Level 5: growth control rate is above 85%) | –
COC(=O)[C@@H](C)O/N=C/c1cc(-n2c(=S)cc(C(F)(F)F)n(C)c2=S)c(F)cc1Br [391(R)] | – | – | – | – | – | – | Weeding effect in post-emergence stage, Eleusine indica (level) (Eleusine indica; Dose 60 g/ha): 5 (Level 5: growth control rate is above 85%); Weeding effect in post-emergence stage, Digitaria sanguinalis (level) (Digitaria sanguinalis; Dose 60 g/ha): 5 (Level 5: growth control rate is above 85%); Weeding effect in post-emergence stage, Alopecurus japonicus (level) (Alopecurus japonicus; Dose 60 g/ha): 5 (Level 5: growth control rate is above 85%); Weeding effect in post-emergence stage, Setaria viridis (level) (Setaria viridis; Dose 60 g/ha): 5 (Level 5: growth control rate is above 85%); Weeding effect in post-emergence stage, Abutilon theophrasti (level) (Abutilon theophrasti; Dose 60 g/ha): 5 (Level 5: growth control rate is above 85%); Weeding effect in post-emergence stage, Echinochloa crusgalli (level) (Echinochloa crusgalli; Dose 60 g/ha): 5 (Level 5: growth control rate is above 85%)
COC(=O)[C@H](O/N=C/c1cc(-n2c(=O)cc(C(F)(F)F)n(C)c2=O)c(F)cc1Cl)C(C)C [318(R)] | 5 (Level 5: growth control rate is above 85%) | 5 (Level 5: growth control rate is above 85%) | 5 (Level 5: growth control rate is above 85%) | 5 (Level 5: growth control rate is above 85%) | 5 (Level 5: growth control rate is above 85%) | 5 (Level 5: growth control rate is above 85%) | –
COC(=O)C(C)O/N=C/c1cc(-n2c(=S)cc(C(F)(F)F)n(C)c2=S)c(F)cc1C#N (racemic) [Compound 390] | – | – | – | – | – | – | Weeding effect in post-emergence stage, Eleusine indica (level) (Eleusine indica; Dose 15 g/ha): 5 (Level 5: growth control rate is above 85%); Weeding effect in post-emergence stage, Digitaria sanguinalis (level) (Digitaria sanguinalis; Dose 15 g/ha): 5 (Level 5: growth control rate is above 85%); Weeding effect in post-emergence stage, Alopecurus japonicus (level) (Alopecurus japonicus; Dose 15 g/ha): 5 (Level 5: growth control rate is above 85%); Weeding effect in post-emergence stage, Setaria viridis (level) (Setaria viridis; Dose 15 g/ha): 5 (Level 5: growth control rate is above 85%); Weeding effect in post-emergence stage, Abutilon theophrasti (level) (Abutilon theophrasti; Dose 15 g/ha): 5 (Level 5: growth control rate is above 85%); Weeding effect in post-emergence stage, Echinochloa crusgalli (level) (Echinochloa crusgalli; Dose 15 g/ha): 5 (Level 5: growth control rate is above 85%)
CCOC(=O)CO/N=C/c1cc(-n2c(=O)cc(C(F)(F)F)[nH]c2=O)ccc1Cl [Control compound B, reference compound] | – | – | – | – | – | – | Weeding effect in post-emergence stage, Eleusine indica (level) (Eleusine indica; Dose 15 g/ha): 1 (Level 1: growth control rate is greater than or equal to 5% and less than 20%); Weeding effect in post-emergence stage, Digitaria sanguinalis (level) (Digitaria sanguinalis; Dose 15 g/ha): 2 (Level 2: growth control rate is greater than or equal to 20% and less than 40%); Weeding effect in post-emergence stage, Alopecurus japonicus (level) (Alopecurus japonicus; Dose 15 g/ha): 1 (Level 1: growth control rate is greater than or equal to 5% and less than 20%); Weeding effect in post-emergence stage, Setaria viridis (level) (Setaria viridis; Dose 15 g/ha): 2 (Level 2: growth control rate is greater than or equal to 20% and less than 40%); Weeding effect in post-emergence stage, Abutilon theophrasti (level) (Abutilon theophrasti; Dose 15 g/ha): 3 (Level 3: growth control rate is greater than or equal to 40% and less than 60%); Weeding effect in post-emergence stage, Echinochloa crusgalli (level) (Echinochloa crusgalli; Dose 15 g/ha): 2 (Level 2: growth control rate is greater than or equal to 20% and less than 40%)
CC(O/N=C/c1cc(-n2c(=O)cc(C(F)(F)F)n(C)c2=O)c(F)cc1Cl)C(=O)ON=C1CCCC1 (stereo not drawn) [Compound 258] | 5 (Level 5: growth control rate is above 85%) | 5 (Level 5: growth control rate is above 85%) | 4 (Level 4: growth control rate is greater than or equal to 60% and less than 85%) | 5 (Level 5: growth control rate is above 85%) | 5 (Level 5: growth control rate is above 85%) | 5 (Level 5: growth control rate is above 85%) | –
CC(O/N=C/c1cc(-n2c(=O)cc(C(F)(F)F)n(C)c2=O)c(F)cc1Cl)C(=O)OCC#N (racemic) [Compound 226] | 5 (Level 5: growth control rate is above 85%) | 5 (Level 5: growth control rate is above 85%) | 5 (Level 5: growth control rate is above 85%) | 5 (Level 5: growth control rate is above 85%) | 5 (Level 5: growth control rate is above 85%) | 5 (Level 5: growth control rate is above 85%) | –
CC(C)=NOC(=O)C(C)O/N=C/c1cc(-n2c(=O)n(C)c(=S)n(C)c2=O)c(F)cc1Cl (stereo not drawn) [Compound 20] | 5 (Level 5: growth control rate is above 85%) | 5 (Level 5: growth control rate is above 85%) | 5 (Level 5: growth control rate is above 85%) | 5 (Level 5: growth control rate is above 85%) | 5 (Level 5: growth control rate is above 85%) | 5 (Level 5: growth control rate is above 85%) | –
COC(=O)[C@H](CF)O/N=C/c1cc(-n2c(=O)cc(C(F)(F)F)n(C)c2=O)c(F)cc1Cl [463(R)] | – | – | – | – | – | – | Weeding effect in post-emergence stage, Eleusine indica (level) (Eleusine indica; Dose 15 g/ha): 5 (Level 5: growth control rate is above 85%); Weeding effect in post-emergence stage, Digitaria sanguinalis (level) (Digitaria sanguinalis; Dose 15 g/ha): 5 (Level 5: growth control rate is above 85%); Weeding effect in post-emergence stage, Alopecurus japonicus (level) (Alopecurus japonicus; Dose 15 g/ha): 5 (Level 5: growth control rate is above 85%); Weeding effect in post-emergence stage, Setaria viridis (level) (Setaria viridis; Dose 15 g/ha): 5 (Level 5: growth control rate is above 85%); Weeding effect in post-emergence stage, Abutilon theophrasti (level) (Abutilon theophrasti; Dose 15 g/ha): 5 (Level 5: growth control rate is above 85%); Weeding effect in post-emergence stage, Echinochloa crusgalli (level) (Echinochloa crusgalli; Dose 15 g/ha): 5 (Level 5: growth control rate is above 85%)
COC(=O)[C@H](O/N=C/c1cc(-n2c(=O)cc(C(F)(F)F)n(C)c2=O)c(F)cc1Cl)c1ccccc1 [337(R)] | 5 (Level 5: growth control rate is above 85%) | 5 (Level 5: growth control rate is above 85%) | 5 (Level 5: growth control rate is above 85%) | 5 (Level 5: growth control rate is above 85%) | 5 (Level 5: growth control rate is above 85%) | 5 (Level 5: growth control rate is above 85%) | –
COC(=O)C(C)O/N=C/c1cc(-n2c(=O)n(C)c(=S)n(C)c2=S)c(F)cc1Cl (racemic) [Compound 124] | 5 (Level 5: growth control rate is above 85%) | 5 (Level 5: growth control rate is above 85%) | 4 (Level 4: growth control rate is greater than or equal to 60% and less than 85%) | 5 (Level 5: growth control rate is above 85%) | 5 (Level 5: growth control rate is above 85%) | 5 (Level 5: growth control rate is above 85%) | –
C=CCOC(=O)C(C)O/N=C/c1cc(-n2c(=O)cc(C(F)(F)F)n(C)c2=O)c(F)cc1Cl (racemic) [Compound 208] | 5 (Level 5: growth control rate is above 85%) | 5 (Level 5: growth control rate is above 85%) | 5 (Level 5: growth control rate is above 85%) | 5 (Level 5: growth control rate is above 85%) | 5 (Level 5: growth control rate is above 85%) | 5 (Level 5: growth control rate is above 85%) | –
C[C@@H](O/N=C/c1cc(-n2c(=O)cc(C(F)(F)F)n(C)c2=O)c(F)cc1Cl)C(=O)OCc1ccncc1 [303(R)] | 5 (Level 5: growth control rate is above 85%) | 5 (Level 5: growth control rate is above 85%) | 5 (Level 5: growth control rate is above 85%) | 5 (Level 5: growth control rate is above 85%) | 5 (Level 5: growth control rate is above 85%) | 5 (Level 5: growth control rate is above 85%) | –
